ChEMBL document CHEMBL1151205, “Terpene isocyanides, isocyanates, and isothiocyanates from the Okinawan marine sponge Stylissa sp” (J Nat Prod, 2004)
pIC50: −log10 of the molar value.

Each compound was assayed on HeLa (assay: Cytotoxicity against human HeLa cells by WST-8 assay).
Type: functional, cell-based
For `C[C@H]1C[C@H]2CC(C)(C)CC3=CC[C@@]4(N=C=S)[C@@H]([C@@H]1CC[C@@H]4C)[C@@H]32`, the pIC50 was 4.05.
Work on `C[C@H]1C[C@H]2CC(C)(C)CC3=CC[C@@]4(N=C=O)[C@@H]([C@@H]1CC[C@@H]4C)[C@@H]32` yielded a pIC50 of 4.42.
`CC1=C[C@@H]2[C@@H](CC1)[C@@](C)(N=C=S)CC[C@H]2C(C)C` (relative stereo) gave a pIC50 of 4.13.
For `[C-]#[N+][C@@]1(C)CC[C@H]2[C@@H]3[C@@H](C(C)=CC[C@@H]31)[C@@H](C=C(C)C)C[C@@H]2C` (relative stereo), the pIC50 was 4.70.
With `C[C@H]1CC[C@]23[C@H]1[C@H]2[C@@H](C(C)(C)N=C=S)CC[C@@H]3C` (relative stereo) the pIC50 was 4.24.
In the case of `[C-]#[N+][C@@]12CC[C@H](C)C3=C(C=C(C)C)C[C@H](C)[C@@H](CC[C@@H]1C)[C@@H]32` (relative stereo), the pIC50 was 4.95.
